In PMC11565411, “Proinsulin C-peptide is a major source of HLA-DQ8 restricted hybrid insulin peptides recognized by human islet-infiltrating CD4^+ T cells” (PNAS Nexus, 2024):

How the values were obtained:
T cell avatar A_4_6 = settings: previous characterisation, clone A3.10 (A_4_6); ref [15, 34]; cited from earlier work
Description: (§1) Supplement pgae491_supplementary_data.docx, table 6: Supplementary Table 6. Summary of previous characterisation of human islet-infiltrating CD4^+ T cells. | column: HLA-restriction

T cell avatar A_4_5 = settings: previous characterisation, clone A4.5 (A_4_5); ref [15, 34]; cited from earlier work
Description: as §1

T cell avatar K_4_161 = assay: T cell avatar NanoLuciferase response to synthetic peptide; assay type: cell-based, human
Description: (§2) Briefly, we used CRISPR/Cas9 to generate a variant of the human T cell line Jurkat that was deficient in TRAC, TRBC, and CD4. […] This parental Jurkat line was then transduced with the TRAV and TRBV constructs that express the TRAV and TRBV genes that form the TCR expressed by human islet-infiltrating CD4^+ T cells. […] Transduced cells expressing CD3 and TCR were purified by flow cytometry or magnetic bead enrichment. Briefly, cells were resuspended in viral supernatant at 1–2 × 10^6/ml with 5 μg/ml polybrene. Cells were centrifuged at 1,200 rpm (300 g) for 60 min at room temperature, then diluted 1:1 in fresh medium and incubated overnight at 37 °C, 5% CO2. Flow cytometry was performed on a Becton Dickinson LSR Fortessa to determine the proportion of CD3 and TCR expressing cells. The following antihuman mAbs were used for FACS staining: CD3-PE (UCHT1, BD Biosciences), and anti-TCRαβ-AF647 (IP26, BioLegend). Cells were stained with the appropriate mAb in phosphate buffered saline (PBS) 0.1% foetal bovine serum (FBS) for 20 min on ice, then washed twice. Dead cells were excluded by propidium iodide staining. Compensation settings were determined using single-color controls. TCR and CD3 expressing cells were purified by FACS or using REALease CD3 Microbead Kit (Miltenyi) following the manufacturer's instructions. All Jurkat T cell avatars used were >85% CD3^+/TCR^+.
(§3) The HIP super-pool bacteria were cultured from frozen glycerol stock in LB media with antibiotics at 37 °C with agitation 210 rpm. The overnight HIP-expressing bacteria cultures were diluted to an OD600 of 0.06 and grown in 48-well plates in 200 μl LB medium with antibiotics until an OD600 of 0.5 was reached. […] After 22–24 h of coculture, the NanoLuciferase activity was measured using the Nano-Glo Luciferase assay (Promega) according to the manufacturer's instructions. Luminescence was measured on a plate reader (Enspire Perkin Elmer). Responses are reported as the Δluciferase, which is calculated by subtracting the average background (no antigen) luciferase reading measured in the negative control cultures from the response measured in the other treatments.
(§4) Peptides (Genscript) were dissolved in dimethyl sulfoxide (DMSO) to 5.0 mM, aliquoted and stored at −80 °C. The CD4^+ T cell avatars' responses to peptides were measured as described above; except synthetic peptides were used as antigens, instead of E. coli and the antigen/EBV cells were not cultured overnight before the T cell avatars were added. A T cell's response to antigen was measured as luciferase activity using the Nano-Glo Luciferase assay system (Promega) according to the manufacturer's instructions (as above). The HLA-restriction of the HIP-specific CD4^+ T cell clones was determined in a two-step process as described previously ([10]). […]

[1] = system: T cell avatar A_4_2 (Jurkat expressing TCR from human islet-infiltrating CD4+ T cell, Donor A); settings: previous characterisation, clone A1.9 (A_4_2); ref [5, 34]; cited from earlier work
Description: as §1

T cell avatar A_4_7 [2] = settings: previous characterisation, clone A5.5 (A_4_7); ref [5]; cited from earlier work
Description: as §1

T cell avatar A_4_8 [3] = settings: previous characterisation, clone A5.8 (A_4_8); ref [5]; cited from earlier work
Description: as §1

[4] = system: HIP-specific T cell avatars; assay: T cell avatar NanoLuciferase response, panel of HIP-specific avatars; assay type: cell-based, human; settings: nine HIP-specific avatars; highest concentration 20 μM; weak left-hand response in 3 of 9 avatars; very weak C-peptide response in three cases
Description: as §3, with “reached. Protein expression was induced by adding isopropyl β-D-thiogalactopyranoside (2.0 mM, Sigma). Incubation was continued for another 4 h at 37 °C in a shaking incubator.” for “reached.”
Peptides (Genscript) were dissolved in dimethyl sulfoxide (DMSO) to 5.0 mM, aliquoted and stored at −80 °C. The CD4^+ T cell avatars' responses to peptides were measured as described above; except synthetic peptides were used as antigens, instead of E. coli and the antigen/EBV cells were not cultured overnight before the T cell avatars were added. […] The T cell avatar's responses were measured as above. […]

T cell avatar A_4_7 [5] = assay: T cell avatar NanoLuciferase response to synthetic peptide; assay type: cell-based, human; settings: highest concentration tested 20 μM
Description: as §2, §3, §4

T cell avatar A_4_8 [6] = assay: as above; assay type: cell-based, human; settings: highest concentration tested 20 μM
Description: as §2, §3, §4

[7] = system: T cell avatar A_4_2 (Jurkat expressing TCR from human islet-infiltrating CD4+ T cell, Donor A); assay: as above; assay type: cell-based; settings: highest concentration tested 20 μM
Description: Briefly, we used CRISPR/Cas9 to generate a variant of the human T cell line Jurkat that was deficient in TRAC, TRBC, and CD4. […] This parental Jurkat line was then transduced with the TRAV and TRBV constructs that express the TRAV and TRBV genes that form the TCR expressed by human islet-infiltrating CD4^+ T cells. […] Transduced cells expressing CD3 and TCR were purified by flow cytometry or magnetic bead enrichment. Briefly, cells were resuspended in viral supernatant at 1–2 × 10^6/ml with 5 μg/ml polybrene. Cells were centrifuged at 1,200 rpm (300 g) for 60 min at room temperature, then diluted 1:1 in fresh medium and incubated overnight at 37 °C, 5% CO2. […] Compensation settings were determined using single-color controls. […]
as §3, with “rpm.” for “rpm. The overnight HIP-expressing bacteria cultures were diluted to an OD600 of 0.06 and grown in 48-well plates in 200 μl LB medium with antibiotics until an OD600 of 0.5 was reached.”, “treatments. […]” for “treatments.”

## GQVELGGG-NAVEVLK [HIP-6, previously reported C-peptide-IAPP2 HIP]
T cell avatar A_4_6
  HLA-restriction: HLA-DQ8
T cell avatar A_4_5
  HLA-restriction: HLA-DQ8

## REAEDLQVG-VCGERGF [HIP-K, hybrid insulin peptide formed by fusion of proinsulin fragments]
T cell avatar K_4_161; blocking mAbs and single-HLA APC lines, peptide 1.0 μM
  HLA restriction: DQ8
T cell avatar K_4_161; synthetic peptide titration, autologous EBV B cells, NanoLuciferase, triplicate
  EC50: > 20 µM

## VELGGGPGA
[1]
  HLA-restriction: HLA-DQ8
T cell avatar A_4_7 [2]
  HLA-restriction: HLA-DQ8
T cell avatar A_4_8 [3]
  HLA-restriction: HLA-DQ8

## EAEDLQVGQVELGGGPGAGSLQPLALEGSLQ [C-peptide, full-length proinsulin C-peptide]
[4]
  T cell avatar response (Δluciferase) to native peptide: did not respond
T cell avatar A_4_7 [5]
  response to full-length C-peptide (Δluciferase): very weak
T cell avatar A_4_8 [6]
  response to full-length C-peptide (Δluciferase): very weak
[7]
  response to full-length C-peptide (Δluciferase): very weak
